In US8486977B2, “1,2,3-triazole derivatives for use as stearoyl-CoA desaturase inhibitors” (GlaxoSmithKline LLC, priority 2007, dated 2013):

Row | Structure (SMILES) | melting point
1 | Cc1c(C(=O)Nc2ccc(F)c(CO)c2)nnn1Cc1ccc(Cl)c(Cl)c1 [Example 53, 1-[(3,4-Dichlorophenyl)methyl]-N-[4-fluoro-3-(hydroxymethyl)phenyl]-5-methyl-1H-1,2,3-triazole-4-carboxamide] | 189.7 °C
2 | CCOC(=O)Cc1ccc(NC(=O)c2nnn(Cc3ccc(Cl)c(Cl)c3)c2C)cc1 [Example 27, Ethyl {4-[({1-[(3,4-dichlorophenyl)methyl]-5-methyl-1H-1,2,3-triazol-4-yl}carbonyl)amino]phenyl}acetate] | 139 °C
3 | Cc1c(C(=O)Nc2ccc(OCc3ccccc3)cc2)nnn1Cc1ccc(F)cc1 [Example 4, 1-[(4-Fluorophenyl)methyl]-5-methyl-N-{4-[(phenylmethyl)oxy]phenyl}-1H-1,2,3-triazole-4-carboxamide] | 139.4 °C
4 | Cc1c(CO)cccc1NC(=O)c1nnn(Cc2ccccc2)c1C [Example 39, N-[3-(Hydroxymethyl)-2-methylphenyl]-5-methyl-1-(phenylmethyl)-1H-1,2,3-triazole-4-carboxamide] | 157 °C
5 | COC(=O)c1cc(NC(=O)c2nnn(Cc3ccc(Cl)c(Cl)c3)c2C)ccc1F [Example 32, Methyl 5-[({1-[(3,4-dichlorophenyl)methyl]-5-methyl-1H-1,2,3-triazol-4-yl}carbonyl)amino]-2-fluorobenzoate] | 169.8 °C
6 | COc1ccc(NC(=O)c2cn(Cc3ccc(F)cc3)nn2)cc1OC | 197.8 °C
7 | Cc1c(CO)cccc1NC(=O)c1nnn(Cc2ccc(Cl)c(Cl)c2)c1C [Example 23, 1-[(3,4-Dichlorophenyl)methyl]-N-[3-(hydroxymethyl)-2-methylphenyl]-5-methyl-1H-1,2,3-triazole-4-carboxamide] | 174.3 °C
8 | Cc1c(C(=O)Nc2cccc(O)c2)nnn1Cc1ccc(Cl)c(Cl)c1 | 192.5 °C
9 | COC(=O)c1ccc(NC(=O)c2nnn(Cc3ccc(Cl)c(Cl)c3)c2C)cc1OC [Example 28, Methyl 4-[({1-[(3,4-dichlorophenyl)methyl]-5-methyl-1H-1,2,3-triazol-4-yl}carbonyl)amino]-2-(methyloxy)benzoate] | 175.9 °C
10 | C=C(C)c1ccc(NC(=O)c2nnn(Cc3ccc(Cl)c(Cl)c3)c2C)c(OC)c1 | 170 °C
11 | Cc1c(C(=O)Nc2ccc(F)c(CO)c2)nnn1Cc1cc(Cl)cc(Cl)c1 [Example 59, 1-[(3,5-Dichlorophenyl)methyl]-N-[4-fluoro-3-(hydroxymethyl)phenyl]-5-methyl-1H-1,2,3-triazole-4-carboxamide] | 178 °C
12 | COc1ccc(NC(=O)c2nnn(Cc3ccc(C)cc3)c2C)cc1OC | 156 °C (dec.)
13 | COC(=O)Cc1cccc(NC(=O)c2nnn(Cc3ccc(Cl)c(Cl)c3)c2C)c1 [Example 30, Methyl {3-[({1-[(3,4-dichlorophenyl)methyl]-5-methyl-1H-1,2,3-triazol-4-yl}carbonyl)amino]phenyl}acetate] | 116 °C
14 | COC(=O)c1ccc(NC(=O)c2nnn(Cc3ccc(Cl)c(Cl)c3)c2C)c(OC)c1 [Example 17, Methyl 4-[({1-[(3,4-dichlorophenyl)methyl]-5-methyl-1H-1,2,3-triazol-4-yl}carbonyl)amino]-3-(methyloxy)benzoate] | 212 °C
15 | COc1ccc(CCO)cc1NC(=O)c1nnn(Cc2ccc(Cl)c(Cl)c2)c1C [Example 54, 1-[(3,4-Dichlorophenyl)methyl]-N-[5-(2-hydroxyethyl)-2-(methyloxy)phenyl]-5-methyl-1H-1,2,3-triazole-4-carboxamide] | 138 °C
16 | Cc1c(C(=O)Nc2cccc(CO)c2)nnn1Cc1ccc(Cl)c(Cl)c1 [Example 24, 1-[(3,4-Dichlorophenyl)methyl]-N-[3-(hydroxymethyl)phenyl]-5-methyl-1H-1,2,3-triazole-4-carboxamide] | 185.2 °C
17 | COC(=O)c1ccc(Cl)c(NC(=O)c2nnn(Cc3ccc(Cl)c(Cl)c3)c2C)c1 [Example 34, Methyl 4-chloro-3-[({1-[(3,4-dichlorophenyl)methyl]-5-methyl-1H-1,2,3-triazol-4-yl}carbonyl)amino]benzoate] | 206.4 °C

The remaining lines, values ahead:

Row | melting point | Structure (SMILES)
18 | 157.2 °C | Cc1c(C(=O)Nc2ccc(CO)c(CO)c2)nnn1Cc1cccc(F)c1 [Example 85, N-[3,4-bis(Hydroxymethyl)phenyl]-1-[(3-fluorophenyl)methyl]-5-methyl-1H-1,2,3-triazole-4-carboxamide]
19 | 120 °C | Cc1c(CNc2cc(CO)cc(CO)c2)nnn1Cc1ccc(Cl)c(Cl)c1 [Example 79, {5-[({1-[(3,4-Dichlorophenyl)methyl]-5-methyl-1H-1,2,3-triazol-4-yl}methyl)amino]benzene-1,3-diyl}dimethanol]
20 | 144.9 °C | Cc1c(C(=O)Nc2cccc(OCCO)c2)nnn1Cc1ccc(Cl)c(Cl)c1 [Example 78, 1-[(3,4-Dichlorophenyl)methyl]-N-{3-[(2-hydroxyethyl)oxy]phenyl}-5-methyl-1H-1,2,3-triazole-4-carboxamide]
21 | 307.2 °C | Cc1c(C(=O)Nc2cc(C(=O)O)cc(C(=O)O)c2)nnn1Cc1ccccc1 [Example 65, 5-({[5-Methyl-1-(phenylmethyl)-1H-1,2,3-triazol-4-yl]carbonyl}amino)-1,3-benzenedicarboxylic acid]
22 | 243.9 °C | COc1ccc(C(=O)O)cc1NC(=O)c1nnn(Cc2ccc(Cl)c(Cl)c2)c1C [Example 64, 3-[({1-[(3,4-Dichlorophenyl)methyl]-5-methyl-1H-1,2,3-triazol-4-yl}carbonyl)amino]-4-(methyloxy)benzoic acid]
23 | 145.6 °C | Cc1c(C(=O)Nc2ccc(CO)cc2)nnn1Cc1ccc(F)cc1 [Example 90, 1-[(4-Fluorophenyl)methyl]-N-[4-(hydroxymethyl)phenyl]-5-methyl-1H-1,2,3-triazole-4-carboxamide]
24 | 157 °C | Cc1c(C(=O)Nc2ccc(CO)c(CO)c2)nnn1Cc1cccc(Cl)c1 [Example 82, N-[3,4-bis(Hydroxymethyl)phenyl]-1-[(3-chlorophenyl)methyl]-5-methyl-1H-1,2,3-triazole-4-carboxamide]
25 | 163.1 °C | Cc1c(C(=O)Nc2ccc(OCCN(C)C)c(CO)c2)nnn1Cc1ccc(Cl)c(Cl)c1 [Example 77, 1-[(3,4-Dichlorophenyl)methyl]-N-[4-{[2-(dimethylamino)ethyl]oxy}-3-(hydroxymethyl)phenyl]-5-methyl-1H-1,2,3-triazole-4-carboxamide]
26 | 160 °C | Cc1c(NC(=O)c2ccc(CO)cc2)nnn1Cc1ccc(Cl)c(Cl)c1 [Example 93, N-{1-[(3,4-Dichlorophenyl)methyl]-5-methyl-1H-1,2,3-triazol-4-yl}-4-(hydroxymethyl)benzamide]
27 | 142.1 °C | Cc1c(C(=O)Nc2cccc(CO)c2)nnn1Cc1ccc(F)cc1 [Example 87, 1-[(4-Fluorophenyl)methyl]-N-[3-(hydroxymethyl)phenyl]-5-methyl-1H-1,2,3-triazole-4-carboxamide]
28 | 180.3 °C | Cc1c(C(=O)Nc2cc(CO)cc(CO)c2)nnn1Cc1ccc(F)cc1 [Example 81, N-[3,5-bis(Hydroxymethyl)phenyl]-1-[(4-fluorophenyl)methyl]-5-methyl-1H-1,2,3-triazole-4-carboxamide]
